Read-outs that look alike come from different tables or passages of the source.

The test system of assay [1] is hematopoietic stem cells (HSCs). The assay can be described thus: Hematopoietic stem cell assay: transplantation of mobilized blood cells into lethally irradiated mice, survival. Type of assay: in vivo, C57BL/6 mice. Particulars: 2 h. How it is done:
C57BL/6 mice, served as donors, were injected with 5 mg/kg of either 4F-benzoyl-TN14003 or AMD3100. 2 h later peripheral blood cells were collected following by ACK lysis and transferred into C57BL/6 recipient mice that were given a lethal dosing of irradiation (900 cGy) 24 h before i.v. injection of cells. A total cell obtained from 900 or 225 microliter of blood was transferred into single recipient mouse in a total volume of 200 μl PBS. Recipient mice transferred with cells obtained from blood of untreated mice or with normal BM cells were served as controls. Survival of mice was monitored for 4 months.
Although mobilization of HPCs may be of use for short-term repopulation in a transplantation setting, HSCs are required for long-term repopulation. To assess the effect of 4F-benzoyl-TN14003 on mobilization of murine HSCs, a transplantation model was used, in which donor C57Bl/6 mice were treated with 4F-benzoyl-TN14003 or AMD3100. After 2 h, blood was collected and cells isolated from an equal volume of blood obtained from each treated group (900 or 225 microliter in different experiments) were transferred for engraftment in lethally irradiated recipient C57Bl/6 mice. Survival of the recipient mice, indicative for long-term repopulating (LTR) activity and presence of HSCs, was monitored.

Assay [2] concerns BM cells on stromal cells (14F1.1). The assay can be described thus: In vitro production of progenitors and mature cells from BM cells seeded on stromal cells (14F1.1). Type of assay: cell-based. How it is done:
More specifically, the number of colonies was assayed by collecting the cells (10^5/plate) 4 days after treatment form the treated and control (untreated) plates, and evaluating the number of progenitor cells using a colony-forming cell assay. Burst forming units erythrocyte (BFU-E), colony forming units granulocyte-macrophage (CFU-GM), colony forming units megakaryocytes (CFU-M), and colony forming units granulocyte-erythrocyte-monocyte-macrophage (CFU-GEMM) were assayed by plating the cells in Iscove's-modified Dulbecco's Medium (IMDM) containing 1% methylcellulose, 15% FBS, 1% bovine serum albumin (BSA), 3 U/mL rh EPO, […] 2-mercaptoethanol, 2 mM L-glutamine, 50 ng/mL rmSCF, 10 ng/mL rmIL-3, […] rh Insulin, 10 ng/mL rh IL-6, and […] Human Transferrin (Methocult GF M3434; StemCell Technologies Inc.). The cultures were incubated at 37° C. in a humidified atmosphere containing 5% CO2. Seven days later, typical colonies were visually scored by morphologic criteria using a light microscope and the frequency of CFU was calculated. Staining colonies with benzidine dihydrochloride (Sigma, Israel) was used to localize hemoglobin-containing cells.

Assay [3] concerns hematopoietic progenitor cells (HPCs). The assay can be described thus: Mobilization of hematopoietic progenitor cells to the blood, colony-forming cell assay. Particulars: 5 mg/kg s.c. 4F-benzoyl-TN14003 or AMD3100, 2 h, G-CSF 2.5 μg s.c. twice a day for 4 days, combination 18 h after last G-CSF. Type of assay: in vivo, C57BL/6 mice.
Another assay concerns white-blood-cells (WBC). Type of assay: in vivo. Particulars: 5 mg/kg s.c. 4F-benzoyl-TN14003 or AMD3100, 2 h, G-CSF 2.5 μg s.c. twice a day for 4 days, combination 18 h after last G-CSF.
The next assay has as its system PC3-CXCR4.5 cells. The assay can be described thus: MIP3α secretion by CXCR4-overexpressing PC3-CXCR4.5 cells (ELISA). It counts as cell-based. The source says:
(§1) A PC3 prostate cell line that overexpresses high levels of CXCR4 was generated. […] FIG. 1A presents FACS histograms of PC3 cells (left panel) and a single cell clone with stable overexpression of CXCR4, GFP and luc genes (PC3-CXCR4.5, right panel) that were stained for the control (IgG2a-PE, full histograms) and CXCR4 (IgG2a-12G5, empty histograms) antibodies.
(§2) In this example, regulation of the chemokine MIP3α (macrophage inflammatory protein 3α) was examined. […] In FIG. 1B, PC3 (left panel) and PC3-CXCR4.5 (right panel) cells were stimulated with the indicated concentrations of CXCL12 for 48 hours and MIP3α secretion was assessed by ELISA. The results represent the average of triplicates±STDEV.
(§3) The effects of the CXCR4 antagonist AMD3100 and of 4F-benzoyl-TN14003 (4FB-TN14003), hitherto known as a CXCR4 antagonist, on MIP3α secretion were further tested. […] In FIG. 10, CXCR4 signaling in PC3 (left panel) and PC3-CXCR4.5 (right panel) cells was inhibited with anti-CXCL12 antibodies (αCXCL12) and Pertussis toxin (PTX) treatments alone or in combination with CXCL12, as indicated. Secretion of MIP3α was assessed by ELISA. The results represent the average of triplicates±STDEV.
Spontaneous secretion of MIP3α is CXCL12 and PTX independent in these cells.
On the technique in general: An ELISA detects its analyte on a solid surface through an enzyme-linked reagent.

The next assay has as its system PC3 cells. The assay can be described thus: MIP3α secretion by PC3 prostate cells (ELISA). Type of assay: cell-based.
Description: as §1, §2, §3

The subject of assay [4] is granulocytes (GR-1 positive cells). The assay can be described thus: Granulocyte (GR-1 positive) counts in blood and bone marrow in a chemotherapy model. The following applies: CPM 250 mg/kg total i.p.; 4F-benzoyl-TN14003 5 mg/kg s.c., G-CSF 5 μg/mouse. It counts as in vivo, mice. How it is done:
Mice received a total dose of 250 mg/kg cyclophosphamide (CPM) by two 0.25 ml intra-peritoneal injections scheduled at day 0 (150 mg/kg) and day 3 (100 mg/kg). Mice were subcutaneously treated with 0.2 ml of 4F-benzoyl-TN14003 (5 mg/kg) at the indicated time points, as detailed in FIG. 13A. Flow cytometery was used to assess the number of cells in the blood and bone marrow (BM), and distinguish between the different populations. Cells were gated according to forward scatter and side scatter to exclude dead cells and to identify granulocytes (GR-1 positive cells).
Mice received a total dose of 250 mg/kg CPM by two 0.25 ml intra-peritoneal injections scheduled at day 0 (150 mg/kg) and day 3 (100 mg/kg). Mice were subcutaneously treated with 0.2 ml of 4F-benzoyl-TN14003 (5 mg/kg) or G-CSF 5 μg/mouse or the combination of both at the indicated time points as detailed in FIG. 14A. Flow cytometery was used to assess the number of cells in the blood and bone marrow (BM) and distinguish between the different populations. Cells were gated according to forward scatter and side scatter to exclude dead cells and to determine granulocytes (GR-1 positive cells).

The next assay deals with neutrophils. The assay can be described thus: Chemotherapy (cyclophosphamide)-induced neutropenia model, neutrophil counts. It counts as in vivo, C57BL/6 mice. The following applies: cyclophosphamide 150 + 100 mg/kg i.p. days 1 and 4, treatment s.c. days 4-7 (4F-benzoyl-TN14003 5 mg/kg). How it is done: In the chemotherapy-induced neutropenia model, a protocol as previously described was followed (Zuluaga et al., 2006). Briefly, Female C57BL/6 mice were injected intraperitoneally with 150 and 100 mg/kg of Cyclophosphamide (CPM) on days 1 and 4, respectively. Following the treatment with CPM, mice were injected s.c. with either G-CSF […], 4F-benzoyl-TN14003 (5 mg/kg) or their combination on day 4, 5, 6 and 7. Blood samples were drawn from each mouse on day 0 and two hours after G-CSF/4F-benzoyl-TN14003 injections on days 4, 5, 6 and 7. Lysis of the erythrocyte population in the blood samples was done using ACK lysis buffer. The number of neutrophils was determined by FACS after staining the cells with anti-PE-Gr-1 antibody.
Neutropenia was induced in female C57BL/6 mice by administration of a total dose of 250 mg/kg cyclophosphamide (CPM) in two 0.5 mL intraperitoneal injections scheduled at day 1 (150 mg/kg) and day 4 (100 mg/kg). The CPM protocol caused 4 days of neutropenia (from day 4 to day 8). When mice were treated with the combination of G-CSF and 4F-benzoyl-TN14003, a significant number of neutrophils was detected in the blood on day 6, as compared to mice that were treated with CPM only or with G-CSF or 4F-benzoyl-TN14003 alone (FIG. 12).

For `c1cc(CN2CCCNCCNCCCNCC2)ccc1CN1CCCNCCNCCCNCC1` [AMD3100, reference compound], the “survival of lethally irradiated recipient mice” value in assay [1] (cells from 225 microliter of blood of donors given 5 mg/kg, day 33 post transplantation) was determined as 37.5%. For the same molecule, in assay [1] (cells from 900 microliter of blood of donors given 5 mg/kg, day 11 post transplantation), the “survival of lethally irradiated recipient mice” value was determined as 73%. In assay [2] (stromal cells (14F1.1) seeded with BM cells, 4F-benzoyl-TN14003 10 microgram/ml, G-CSF 100 ng/ml, 4 days), the “production of GR-1 and Ter119 positive cells and progenitors” value is given as “did not demonstrate this effect”. Moreover, in assay [3], the “BFU-E in blood, fold elevation of cell counts from control” value (“BFU-E in blood, fold elevation” below) is listed as roughly 30 fold; the “CFU-GEMM in blood, fold elevation of cell counts from control” value is listed as 15.5 fold; the “Progenitors in blood, fold elevation of cell counts from control” value was found to be 4.2 fold. Also, the “BFU-E in blood, fold elevation” value in assay [3] (listed as AMD31000) turned out to be 35 fold. In the assay on white-blood-cells (WBC), the “Activated macrophages, fold elevation of cell counts from control” value was found to be 6.1 fold; the “MNC, fold elevation of cell counts from control” value turned out to be 3.4 fold; the “Neutrophils, fold elevation of cell counts from control” value was 8 fold. Also, in the assay on white-blood-cells (WBC) (listed as AMD31000), the “Neutrophils, fold elevation of cell counts from control” value is reported as 8.0 fold and the “Total WBC, fold elevation of cell counts from control” value amounted to 2.9 fold.
As to “CXCL12: chemokine, CXCR4's only natural ligand”, the MIP3α secretion result with PC3-CXCR4.5 cells (PC3-CXCR4.5 cells, ELISA) is recorded as “increased the secretion of MIP3α”; with PC3 cells it was “increased the secretion of MIP3α”. Further, in the assay with PC3-CXCR4.5 cells (transfection with CXCR4-specific or control siRNA), the “CXCR4 dependence of induced MIP3α secretion” value is recorded as “CXCR4 dependent”.

B1: G-CSF: Granulocyte colony-stimulating factor (G-CSF) (Filgrastim Neupogen) (protein, UniProt P09919 31-207, looked up)
Granulocyte …: TPLGPASSLPQSFLLKCLEQVRKIQGDGAALQEKLVSECATYKLCHPEELVLLGHSLGIPWAPLSSCPSQALQLAGCLSQLHSGLFLYQGLLQALEGISPELGPTLDTLQLDVADFATTIWQQMEELGMAPALQPTQGAMPAFASAFQRRAGGVLVASHLQSFLEVSYRVLRHLAQP
modifications: N-terminal methionine
For the molecule B1, the “GR-1 positive cells in the blood (flow cytometry)” value in assay [4] was “mobilize GR-1 positive cells and reduce neutropenia”. Besides, in the assay with neutrophils (day 6), the “number of neutrophils in blood as % of the initial number in normal (untreated) mice” value is reported as “only a mild effect”. Further, in the assay with neutrophils (day 7), the “number of neutrophils in blood as % of the initial number” value is “not sufficient to elevate neutrophil counts to their normal level”. Besides, the “differentiation and proliferation of BM cells on stromal cells (micrographs)” value in assay [2] (representative experiment, FIG. 17E) was “differentiating and proliferating”. In assay [3], the “BFU-E in blood, fold elevation” value worked out at 142 fold; the “CFU-GEMM in blood, fold elevation of cell counts from control” value turned out to be 151 fold; the “Progenitors in blood, fold elevation of cell counts from control” value was found to be 13.6 fold. In the assay with white-blood-cells (WBC), the “Activated macrophages, fold elevation of cell counts from control” value worked out at 1.4 fold; the “MNC, fold elevation of cell counts from control” value is recorded as 1.4 fold; the “Total WBC, fold elevation of cell counts from control” value amounted to 1.9 fold.

The record behind these values is patent US8455450B2, “Methods for obtaining a therapeutically effective amount of hematopoietic precursor cells and long term engraftment thereof” (Biokine Therapeutics Ltd., priority 2006, dated 2013).
